The values that follow are results of earlier work, collected in PMC11904481 (ESMO Open, 2025).

Each structure is given as a SMILES string. Like-named read-outs stand apart in the source and are kept apart here.

The target of one data set is ERK1/2 kinase. Conditions: read-out: enzymatic IC50; cited from earlier work.
In data set [1] the test system is patient-derived xenograft (PDX) models of esophageal squamous cell carcinoma. The note with it: cited from earlier work.
Where [2] appears, read: 11q13-amplified (11q-AMP) PDX models of esophageal SCC.
The mark [3] stands for this setting: 11q13WT PDX models of esophageal SCC.

Take `O=C1Nc2cc3[nH]nc(-c4ccncc4)c3cc2CN1Cc1ccccc1` [KO-947]: the IC50 at ERK1/2 kinase is 10 nM. The figures for the disease control rate in data set [1] (setting [2]) and in data set [1] (setting [3]) were 77% and 21%, respectively. Further, the overall response rate in data set [1] (setting [2]) is reported as 51%; in data set [1] (setting [3]), 3%.

By IC50 is commonly meant the concentration that gives 50% inhibition.
